Data as given in US8962621B2 (Shanghai Institute of Pharmaceutical Industry, priority 2010, dated 2015).
Counter-ions that a name gives are not always drawn.

Tests used:
[1] = molecular target: 5-HT Transporter (hSERT) (Homo sapiens, UniProt P31645); experiment: Inhibition of [3H]-5-HT reuptake in HEK 293 cells stably expressing hSERT; conditions: for inhibition at 10 µM: HEK293, read-out: 5-HT Reuptake Inhibition; for 5-HT Reuptake Inhibition: 10 μmol/L final concentration (b487 prints 0.1 mmol/L), HEK 293 hSERT cells, [3H]-5-HT;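 as to all read-outs here: compound preincubated 10 min at 30 °C, then 10 min uptake, filter-bound radioactivity counted by scintillation, inhibition relative to total (blank) minus non-specific (positive control) uptake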
[2] = molecular target: DA Transporter (hDAT) (Homo sapiens, UniProt Q01959); experiment: Inhibition of [3H]-DA reuptake in HEK 293 cells stably expressing hDAT; conditions: for inhibition at 10 µM: HEK293, read-out: DA Reuptake Inhibition; for DA Reuptake Inhibition: 10 μmol/L final concentration (b487 prints 0.1 mmol/L), HEK 293 hDAT cells, [3H]-DA
[3] = test system: male Kunming mice; experiment: Mice forced swimming test; format: in vivo; conditions: for effect in the forced swimming test (in words): 20 mg/kg; for IT (sec), immobility time: 20.0 mg/kg single intragastric administration, 1 h before test, last 4 min of 6 min, n=12
Description: Through intragastric administration, 10 mL·kg^−1 of each sample (physiological saline for the blank control group) is administrated. The mice are pre-screened for swimming one day before the actual test. The mouse is placed into water (25° C., 10 cm deep) in a glass tank (height 20 cm, diameter 14 cm) and forced to swim for 6 min. Those who stop swimming at around 70-160 s are chosen for the actual test which starts 24 h later. After 1 h of the administration, the forced swimming test is performed by placing the animal into the above-mentioned environment to swim for 6 min. The accumulative immobility time for the last 4 min is recorded. Data is statistically analyzed with t-test.

[4] = molecular target: NA Transporter (hNAT) (Homo sapiens, UniProt P23975); experiment: Inhibition of [3H]-NA reuptake in HEK 293 cells stably expressing hNAT; conditions: for NA Reuptake Inhibition: 10 μmol/L final concentration (b487 prints 0.1 mmol/L), HEK 293 hNAT cells, [3H]-NA
[5] = test system: male ICR mice; experiment: Mice tail suspension test; format: in vivo; conditions: for IT (sec), immobility time: 20.0 mg/kg single intragastric administration, 1 h before test, 4 min observation, n=12; for Improvement (%): 20.0 mg/kg single oral administration, versus blank control IT; for effect on immobility time in the tail suspension test (in words): 20 mg/kg, efficacy similar to Venlafaxine
Description: Through intragastric administration, 10 mL·kg^−1 of each sample (physiological saline for the blank control group) is administrated. After 1 h of the treatment, the mouse is held with a medical tape at a position around 2 cm from the tip of its tail and hung upside-down in the suspension cage with its head 5 cm away from the bottom of the cage. The observation starts right after the mouse is suspended for 2 min and continues for 4 min. The time during which the mouse is immobile (no struggling or only tiny movements of its body/limbs) in this 4 min is accumulated (IT, immobility time). The percentage of the improvement is calculated according to the equation: Improvement %=[IT (blank control group)−IT (compound treatment group)]/IT (blank control group)×100%

Sequence of 5-HT Transporter (hSERT) (P31645 whole entry): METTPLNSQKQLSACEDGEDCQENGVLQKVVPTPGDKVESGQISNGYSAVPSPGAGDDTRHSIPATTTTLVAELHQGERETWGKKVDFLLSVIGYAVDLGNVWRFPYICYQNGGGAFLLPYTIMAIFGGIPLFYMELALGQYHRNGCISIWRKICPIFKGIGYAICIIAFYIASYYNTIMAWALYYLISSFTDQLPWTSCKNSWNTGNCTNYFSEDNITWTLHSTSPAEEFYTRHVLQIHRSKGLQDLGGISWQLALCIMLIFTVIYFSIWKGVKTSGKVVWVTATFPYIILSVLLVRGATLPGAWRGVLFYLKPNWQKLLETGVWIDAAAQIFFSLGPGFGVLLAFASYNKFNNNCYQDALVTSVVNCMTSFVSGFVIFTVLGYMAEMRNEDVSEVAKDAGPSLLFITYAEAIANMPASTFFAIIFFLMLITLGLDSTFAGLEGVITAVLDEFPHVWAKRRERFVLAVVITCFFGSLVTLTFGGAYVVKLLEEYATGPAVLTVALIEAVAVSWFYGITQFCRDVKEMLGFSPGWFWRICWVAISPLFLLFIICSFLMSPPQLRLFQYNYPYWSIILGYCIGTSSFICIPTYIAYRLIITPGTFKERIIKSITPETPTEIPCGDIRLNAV
Sequence of DA Transporter (hDAT) (Q01959 whole entry): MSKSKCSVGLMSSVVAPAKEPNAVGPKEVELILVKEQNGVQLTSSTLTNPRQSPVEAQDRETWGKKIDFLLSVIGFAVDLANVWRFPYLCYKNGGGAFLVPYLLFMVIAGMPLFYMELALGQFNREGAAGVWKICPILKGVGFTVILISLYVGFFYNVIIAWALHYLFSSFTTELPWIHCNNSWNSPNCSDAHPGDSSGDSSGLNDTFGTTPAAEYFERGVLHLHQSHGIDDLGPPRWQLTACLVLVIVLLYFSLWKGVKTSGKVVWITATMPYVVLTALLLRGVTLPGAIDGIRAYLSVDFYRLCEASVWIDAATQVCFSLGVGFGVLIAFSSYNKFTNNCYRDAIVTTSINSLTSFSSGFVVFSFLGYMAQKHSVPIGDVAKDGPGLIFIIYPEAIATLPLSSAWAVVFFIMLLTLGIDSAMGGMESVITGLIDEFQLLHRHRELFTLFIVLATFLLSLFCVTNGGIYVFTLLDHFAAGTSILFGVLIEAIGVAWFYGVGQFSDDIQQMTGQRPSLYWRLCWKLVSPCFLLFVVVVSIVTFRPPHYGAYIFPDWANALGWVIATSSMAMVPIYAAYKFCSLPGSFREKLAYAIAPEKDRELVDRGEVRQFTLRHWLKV
Sequence of NA Transporter (hNAT) (P23975 whole entry): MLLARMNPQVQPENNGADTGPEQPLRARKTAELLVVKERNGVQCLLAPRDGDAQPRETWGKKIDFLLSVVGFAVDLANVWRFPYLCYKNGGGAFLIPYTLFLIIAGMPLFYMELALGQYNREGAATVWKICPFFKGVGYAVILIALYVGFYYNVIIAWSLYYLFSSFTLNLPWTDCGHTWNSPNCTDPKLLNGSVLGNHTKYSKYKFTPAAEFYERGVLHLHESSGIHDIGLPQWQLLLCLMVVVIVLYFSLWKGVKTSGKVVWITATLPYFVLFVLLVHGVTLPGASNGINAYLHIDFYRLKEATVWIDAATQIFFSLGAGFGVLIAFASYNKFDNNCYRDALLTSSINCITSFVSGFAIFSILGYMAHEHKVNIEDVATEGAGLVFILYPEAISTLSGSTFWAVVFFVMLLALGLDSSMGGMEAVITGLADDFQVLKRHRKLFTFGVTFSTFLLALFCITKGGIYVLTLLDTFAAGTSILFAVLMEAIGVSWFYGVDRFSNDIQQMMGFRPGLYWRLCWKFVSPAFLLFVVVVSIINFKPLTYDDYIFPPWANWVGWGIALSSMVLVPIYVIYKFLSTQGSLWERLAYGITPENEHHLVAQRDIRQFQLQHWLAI

CCCN(C)C1(c2csc3ccccc23)CCCNC1 (centres unmarked) (as salt: hydrochloride)
melting point: 193.2 to 195 °C

CCCN(C)C1(c2ccc3c(c2)OCO3)CCCNC1 (centres unmarked) (as salt: hydrochloride)
melting point: 189.3 to 192.4 °C

CCCN(C)C1(c2ccc(OC)c(OC)c2)CCCNC1 (centres unmarked) (as salt: hydrochloride)
melting point: 195.2 to 197.8 °C

CN(C)CCC(c1ccc(Cl)c(Cl)c1)N1CCNCC1 (centres unmarked) (as salt: hydrochloride) [VI-3, N,N-dimethyl-3-(3,4-dichlorophenyl)-3-(piperazin-1-yl)-propylamine]
melting point: 257.3 to 258.9 °C

CN(C)CCCC1(c2ccc(Cl)c(Cl)c2)CCCNC1 (centres unmarked) (as salt: hydrochloride) [VI-7, N,N-dimethyl-3-(3,4-dichlorophenyl)-3-piperidyl-propylamine]
melting point: 169.1 to 171.8 °C

CN(C)CCC(c1csc2ccccc12)N1CCCC1 (centres unmarked) (as salt: hydrochloride) [VI-13, N,N-dimethyl-3-(benzothiophen-3-yl)-3-(pyrrolidin-1-yl)-propylamine]
melting point: 259.7 to 262.2 °C

CN(CCC(c1csc2ccccc12)N1CCCC1)Cc1ccccc1 (centres unmarked) (as salt: hydrochloride) [VI-14, N-methyl-N-benzyl-3-(benzothiophen-3-yl)-3-(pyrrolidin-1-yl)-propylamine]
melting point: 297 to 299.5 °C

CNCCC(c1csc2ccccc12)N1CCCC1 (centres unmarked) (as salt: hydrochloride) [VI-15, N-methyl-3-(benzothiophen-3-yl)-3-(pyrrolidin-1-yl)-propylamine]
melting point: 189.3 to 192 °C

CN(CCCC1(c2csc3ccccc23)CCCNC1)Cc1ccccc1 (centres unmarked) (as salt: hydrochloride) [VI-17, N-methyl-N-benzyl-3-(benzothiophen-3-yl)-3-piperidyl-propylamine]
melting point: 312 to 313.5 °C

CN(C)CCC(c1cc2ccccc2s1)N1CCCC1 (centres unmarked) (as salt: hydrochloride) [VI-19, N,N-dimethyl-3-(benzothiophen-2-yl)-3-(pyrrolidin-1-yl)-propylamine]
melting point: 255 to 257.2 °C

CN(CCC(c1cc2ccccc2s1)N1CCCC1)Cc1ccccc1 (centres unmarked) (as salt: hydrochloride) [VI-20, N-methyl-N-benzyl-3-(benzothiophen-2-yl)-3-(pyrrolidin-1-yl)-propylamine]
melting point: 287.5 to 289.2 °C

CNCCC(c1cc2ccccc2s1)N1CCCC1 (centres unmarked) (as salt: hydrochloride) [VI-21, N-methyl-3-(benzothiophen-2-yl)-3-(pyrrolidin-1-yl)-propylamine]
melting point: 175 to 176.8 °C

CN(CCCC1(c2cc3ccccc3s2)CCCNC1)Cc1ccccc1 (centres unmarked) (as salt: hydrochloride) [VI-23, N-methyl-N-benzyl-3-(benzothiophen-2-yl)-3-piperidyl-propylamine]
melting point: 298.5 to 300 °C

CCCN(C)C1(c2cc3ccccc3s2)CCCNC1 (centres unmarked) (as salt: hydrochloride) [VI-24, N-methyl-3-(benzothiophen-2-yl)-3-piperidyl-propylamine]
melting point: 185.3 to 187 °C

COc1ccc2cc(C(CCN(C)C)N3CCCC3)ccc2c1Cl (centres unmarked) (as salt: hydrochloride) [VI-36, N,N-dimethyl-3-(5-chloro-6-methoxynaphthalen-2-yl)-3-(pyrrolidin-1-yl)-propylamine]
melting point: 215.2 to 216.9 °C

COc1ccc(C(CCN(C)C)N2CCCC2)cc1 (centres unmarked) (as salt: hydrochloride) [VI-37, N,N-dimethyl-3-(4-methoxyphenyl)-3-(pyrrolidin-1-yl)-propylamine]
melting point: 175.2 to 178.4 °C

CN(C)CCCC(c1ccc(Cl)c(Cl)c1)N1CCNCC1 (centres unmarked) (as salt: hydrochloride) [VI-45, N,N-dimethyl-4-(3,4-dichlorophenyl)-4-(piperazin-1-yl)-butylamine]
melting point: 245.6 to 248.2 °C

CN(C)CCCC(c1csc2ccccc12)N1CCNCC1 (centres unmarked) (as salt: hydrochloride) [VI-47, N,N-dimethyl-4-(benzothiophen-3-yl)-4-(piperazin-1-yl)-butylamine]
melting point: 249.6 to 252.2 °C

CN(CCCC1(c2ccc3c(c2)OCO3)CCCNC1)Cc1ccccc1 (centres unmarked) (as salt: hydrochloride) [VI-53, N-methyl-N-benzyl-3-(1,2-methylenedioxybenzen-4-yl)-3-piperidyl-propylamine]
melting point: 285.6 to 288.9 °C

COc1ccc(C2(CCCN(C)Cc3ccccc3)CCCNC2)cc1OC (centres unmarked) (as salt: hydrochloride) [VI-59, N-methyl-N-benzyl-3-(3,4-dimethoxyphenyl)-3-piperidyl-propylamine]
melting point: 256.6 to 258.9 °C

Clc1ccc([C@]23CNC[C@H]2C3)cc1Cl [DOV-21947, reference compound]
inhibition at 10 µM [1]: 100% | inhibition at 10 µM [2]: 100%

CN(C)CCC(c1ccc(Cl)c(Cl)c1)N1CCOCC1 (centres unmarked) [VI-4, N,N-dimethyl-3-(3,4-dichlorophenyl)-3-morpholinyl-propylamine]
effect in the forced swimming test (in words) [3]: significant reduction in the immobility time | IT (sec), immobility time [3]: 52.8 ± 32.0 s | inhibition effect towards the reuptake of 5-HT (in words) [1]: relatively strong inhibition effect | 5-HT Reuptake Inhibition [1]: 101.9% | NA Reuptake Inhibition [4]: 93.6% | IT (sec), immobility time [5]: 38.65 ± 16.32 s | Improvement (%) [5]: 61.04% | effect on immobility time in the tail suspension test (in words) [5]: significant reduction in the immobility time | DA Reuptake Inhibition [2]: 89.9%

Clc1ccc(C(CCN2CCOCC2)N2CCCC2)cc1Cl (centres unmarked) [VI-6]
effect in the forced swimming test (in words) [3]: significant difference from that of the blank control | IT (sec), immobility time [3]: 79.3 ± 53.1 s | 5-HT Reuptake Inhibition [1]: 106.3% | NA Reuptake Inhibition [4]: 101.4% | IT (sec), immobility time [5]: 25.68 ± 14.25 s | Improvement (%) [5]: 74.11% | effect on immobility time in the tail suspension test (in words) [5]: significant reduction in the immobility time | DA Reuptake Inhibition [2]: 106.4%

CN(C)CCC(c1csc2ccccc12)N1CCCC1 (centres unmarked) [VI-13, N,N-dimethyl-3-(benzothiophen-3-yl)-3-(pyrrolidin-1-yl)-propylamine]
effect in the forced swimming test (in words) [3]: significant reduction in the immobility time | IT (sec), immobility time [3]: 44.9 ± 53.7 s | inhibition at 10 µM [1]: 96.6% | inhibition at 10 µM ([4]; HEK293, read-out: NA Reuptake Inhibition): 98.8% | IT (sec), immobility time [5]: 38.29 ± 23.76 s | Improvement (%) [5]: 61.40% | effect on immobility time in the tail suspension test (in words) [5]: significant reduction in the immobility time | inhibition at 10 µM [2]: 96.9%

CN(C)CCC(c1cc2ccccc2s1)N1CCOCC1 (centres unmarked) [VI-25, N,N-dimethyl-3-(benzothiophen-2-yl)-3-morpholinyl-propylamine]
5-HT Reuptake Inhibition [1]: 91.5% | NA Reuptake Inhibition [4]: 96.8% | DA Reuptake Inhibition [2]: 39.2%

COc1ccc2cc(C(CCN(C)C)N3CCOCC3)ccc2c1Cl (centres unmarked) [VI-34, N,N-dimethyl-3-(5-chloro-6-methoxynaphthalen-2-yl)-3-morpholinyl-propylamine]
5-HT Reuptake Inhibition [1]: 47.3% | NA Reuptake Inhibition [4]: 49.5% | DA Reuptake Inhibition [2]: 2.48%

COc1ccc(C(CCN(C)C)N2CCOCC2)cc1 (centres unmarked) [VI-38, N,N-dimethyl-3-(4-methoxyphenyl)-3-morpholinyl-propylamine]
5-HT Reuptake Inhibition [1]: 25.9% | NA Reuptake Inhibition [4]: 29.3% | DA Reuptake Inhibition [2]: 23.0%

CN(C)CCCC(c1ccc(Cl)c(Cl)c1)N1CCOCC1 (centres unmarked) [VI-44, N,N-dimethyl-4-(3,4-dichlorophenyl)-4-morpholinyl-butylamine]
5-HT Reuptake Inhibition [1]: 45.8% | NA Reuptake Inhibition [4]: 54.6% | DA Reuptake Inhibition [2]: 67.0%

CN(C)CCC(c1ccc(F)cc1F)N1CCOCC1 (centres unmarked) [VI-48, N,N-dimethyl-3-(2,4-difluorophenyl)-3-morpholinyl-propylamine]
5-HT Reuptake Inhibition [1]: 65.0% | NA Reuptake Inhibition [4]: 58.0% | DA Reuptake Inhibition [2]: 45.6%

COc1ccc(C(CCN(C)Cc2ccccc2)N2CCOCC2)cc1OC (centres unmarked) [VI-56, N-methyl-N-benzyl-3-(3,4-dimethoxyphenyl)-3-morpholinyl-propylamine]
5-HT Reuptake Inhibition [1]: 78.0% | NA Reuptake Inhibition [4]: 68.7% | DA Reuptake Inhibition [2]: 59.2%

CN(C)CCC(c1cccs1)N1CCOCC1 (centres unmarked) [VI-61, N,N-dimethyl-3-(thien-2-yl)-3-morpholinyl-propylamine]
5-HT Reuptake Inhibition [1]: 78.9% | NA Reuptake Inhibition [4]: 75.0% | DA Reuptake Inhibition [2]: 65.6%
